The first test has as its system NCI-H1993. Description: relative viability (nuclei count vs DMSO), 5 days (fraction); higher = more cells survive. The settings on record: first compound 0.08 µM. The method, boiled down:
(§1)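 Cells from lung cancer lines were seeded into 1536-well plates and, one day later, dosed by pin tool. Treatments were either a single drug or a fixed dose of an anchor drug with five library-drug doses (not always all listed) in √10 steps. After 5 days, nuclei were stained in a one-step fixation (final 0.05% Triton X-100, 1% formaldehyde, 1 ug/ml Hoechst) and counted on 4× images, and relative viability is the treated-to-vehicle nuclei ratio, as the median of duplicate plates.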
`CCCCCCCCCCCC1=C(O)C(=O)C=C(O)C1=O` [Embelin] + O=C(CCCCCCC(=O)Nc1ccccc1)NO [Vorinostat] (partner 1 µM) returned a relative viability of 0.825.
The compound `CCCCCCCCCCCC1=C(O)C(=O)C=C(O)C1=O` [Embelin] + O=C(c1cc(Cc2n[nH]c(=O)c3ccccc23)ccc1F)N1CCN(C(=O)C2CC2)CC1 [Olaparib] (partner 8 µM) showed a relative viability of 1.16.
For `CCCCCCCCCCCC1=C(O)C(=O)C=C(O)C1=O` [Embelin] + Cc1cc(Nc2cc(N3CCN(C)CC3)nc(Sc3ccc(NC(=O)C4CC4)cc3)n2)n[nH]1 [Tozasertib] (partner 0.1 µM), the relative viability turned out to be 0.523.
For `CCCCCCCCCCCC1=C(O)C(=O)C=C(O)C1=O` [Embelin] + Nc1ncn([C@H]2C[C@H](O)[C@@H](CO)O2)c(=O)n1 [Decitabine] (partner 2 µM), the relative viability turned out to be 0.481.
Consider `CCCCCCCCCCCC1=C(O)C(=O)C=C(O)C1=O` [Embelin] + CC(=O)c1c(C)c2cnc(Nc3ccc(N4CCNCC4)cn3)nc2n(C2CCCC2)c1=O [Palbociclib] (partner 0.5 µM), for which the relative viability came out at 0.641.

The same test, now with this note: first compound 0.8 µM.
For `CCCCCCCCCCCC1=C(O)C(=O)C=C(O)C1=O` [Embelin] + O=C(CCCCCCC(=O)Nc1ccccc1)NO [Vorinostat] (partner 1 µM), the relative viability stood at 0.772.
Same read-out and setting: to `CCCCCCCCCCCC1=C(O)C(=O)C=C(O)C1=O` [Embelin] + O=C(c1cc(Cc2n[nH]c(=O)c3ccccc23)ccc1F)N1CCN(C(=O)C2CC2)CC1 [Olaparib] (partner 8 µM) belongs 1.07; to `CCCCCCCCCCCC1=C(O)C(=O)C=C(O)C1=O` [Embelin] + Cc1cc(Nc2cc(N3CCN(C)CC3)nc(Sc3ccc(NC(=O)C4CC4)cc3)n2)n[nH]1 [Tozasertib] (partner 0.1 µM), 0.593; to `CCCCCCCCCCCC1=C(O)C(=O)C=C(O)C1=O` [Embelin] + Nc1ncn([C@H]2C[C@H](O)[C@@H](CO)O2)c(=O)n1 [Decitabine] (partner 2 µM), 0.608.
`CCCCCCCCCCCC1=C(O)C(=O)C=C(O)C1=O` [Embelin] + CC(=O)c1c(C)c2cnc(Nc3ccc(N4CCNCC4)cn3)nc2n(C2CCCC2)c1=O [Palbociclib] (partner 0.5 µM): the relative viability is 0.674.

Still in this test, the particulars now being: first compound 2.53 µM.
`CCCCCCCCCCCC1=C(O)C(=O)C=C(O)C1=O` [Embelin] + O=C(CCCCCCC(=O)Nc1ccccc1)NO [Vorinostat] (partner 1 µM) had a relative viability of 0.764.
Turning to `CCCCCCCCCCCC1=C(O)C(=O)C=C(O)C1=O` [Embelin] + O=C(c1cc(Cc2n[nH]c(=O)c3ccccc23)ccc1F)N1CCN(C(=O)C2CC2)CC1 [Olaparib] (partner 8 µM), the relative viability worked out at 1.21.
On to `CCCCCCCCCCCC1=C(O)C(=O)C=C(O)C1=O` [Embelin] + Cc1cc(Nc2cc(N3CCN(C)CC3)nc(Sc3ccc(NC(=O)C4CC4)cc3)n2)n[nH]1 [Tozasertib] (partner 0.1 µM), for which the relative viability stood at 0.594.
Still for that read-out and setting: the figure for `CCCCCCCCCCCC1=C(O)C(=O)C=C(O)C1=O` [Embelin] + Nc1ncn([C@H]2C[C@H](O)[C@@H](CO)O2)c(=O)n1 [Decitabine] (partner 2 µM) is 0.627.
As for `CCCCCCCCCCCC1=C(O)C(=O)C=C(O)C1=O` [Embelin] + CC(=O)c1c(C)c2cnc(Nc3ccc(N4CCNCC4)cn3)nc2n(C2CCCC2)c1=O [Palbociclib] (partner 0.5 µM), the relative viability worked out at 0.721.

Still in this test, the particulars now being: first compound 8 µM.
Regarding `CCCCCCCCCCCC1=C(O)C(=O)C=C(O)C1=O` [Embelin] + O=C(CCCCCCC(=O)Nc1ccccc1)NO [Vorinostat] (partner 1 µM), the relative viability worked out at 0.646.
Turning to `CCCCCCCCCCCC1=C(O)C(=O)C=C(O)C1=O` [Embelin] + O=C(c1cc(Cc2n[nH]c(=O)c3ccccc23)ccc1F)N1CCN(C(=O)C2CC2)CC1 [Olaparib] (partner 8 µM), the relative viability was 1.6.
The compound `CCCCCCCCCCCC1=C(O)C(=O)C=C(O)C1=O` [Embelin] + Cc1cc(Nc2cc(N3CCN(C)CC3)nc(Sc3ccc(NC(=O)C4CC4)cc3)n2)n[nH]1 [Tozasertib] (partner 0.1 µM) returned a relative viability of 0.548.
As to `CCCCCCCCCCCC1=C(O)C(=O)C=C(O)C1=O` [Embelin] + Nc1ncn([C@H]2C[C@H](O)[C@@H](CO)O2)c(=O)n1 [Decitabine] (partner 2 µM), the relative viability amounted to 0.548.
Compound `CCCCCCCCCCCC1=C(O)C(=O)C=C(O)C1=O` [Embelin] + CC(=O)c1c(C)c2cnc(Nc3ccc(N4CCNCC4)cn3)nc2n(C2CCCC2)c1=O [Palbociclib] (partner 0.5 µM) returned a relative viability of 0.614.

The test system of the next test is NCI-H2009. The test is described as above. The settings on record: first compound 0.08 µM. The method, boiled down:
as §1
With `CCCCCCCCCCCC1=C(O)C(=O)C=C(O)C1=O` [Embelin] + O=C(CCCCCCC(=O)Nc1ccccc1)NO [Vorinostat] (partner 1 µM), the relative viability was found to be 0.748.
`CCCCCCCCCCCC1=C(O)C(=O)C=C(O)C1=O` [Embelin] + O=C(c1cc(Cc2n[nH]c(=O)c3ccccc23)ccc1F)N1CCN(C(=O)C2CC2)CC1 [Olaparib] (partner 8 µM) had a relative viability of 0.693.
Regarding `CCCCCCCCCCCC1=C(O)C(=O)C=C(O)C1=O` [Embelin] + Cc1cc(Nc2cc(N3CCN(C)CC3)nc(Sc3ccc(NC(=O)C4CC4)cc3)n2)n[nH]1 [Tozasertib] (partner 0.1 µM), the relative viability is 0.753.
The compound `CCCCCCCCCCCC1=C(O)C(=O)C=C(O)C1=O` [Embelin] + Nc1ncn([C@H]2C[C@H](O)[C@@H](CO)O2)c(=O)n1 [Decitabine] (partner 2 µM) returned a relative viability of 0.407.
In the case of `CCCCCCCCCCCC1=C(O)C(=O)C=C(O)C1=O` [Embelin] + CC(=O)c1c(C)c2cnc(Nc3ccc(N4CCNCC4)cn3)nc2n(C2CCCC2)c1=O [Palbociclib] (partner 0.5 µM), the relative viability was 0.223.

The test is the same for the next values; noted with them: first compound 0.8 µM.
Take `CCCCCCCCCCCC1=C(O)C(=O)C=C(O)C1=O` [Embelin] + O=C(CCCCCCC(=O)Nc1ccccc1)NO [Vorinostat] (partner 1 µM): the relative viability turned out to be 0.837.
For `CCCCCCCCCCCC1=C(O)C(=O)C=C(O)C1=O` [Embelin] + O=C(c1cc(Cc2n[nH]c(=O)c3ccccc23)ccc1F)N1CCN(C(=O)C2CC2)CC1 [Olaparib] (partner 8 µM), the relative viability turned out to be 0.821.
`CCCCCCCCCCCC1=C(O)C(=O)C=C(O)C1=O` [Embelin] + Cc1cc(Nc2cc(N3CCN(C)CC3)nc(Sc3ccc(NC(=O)C4CC4)cc3)n2)n[nH]1 [Tozasertib] (partner 0.1 µM): the relative viability was 0.915.
On the same count and under the same terms, the figure for `CCCCCCCCCCCC1=C(O)C(=O)C=C(O)C1=O` [Embelin] + Nc1ncn([C@H]2C[C@H](O)[C@@H](CO)O2)c(=O)n1 [Decitabine] (partner 2 µM) is 0.412.
Still for that read-out and setting: to `CCCCCCCCCCCC1=C(O)C(=O)C=C(O)C1=O` [Embelin] + CC(=O)c1c(C)c2cnc(Nc3ccc(N4CCNCC4)cn3)nc2n(C2CCCC2)c1=O [Palbociclib] (partner 0.5 µM) belongs 0.277.

These data come from the supplement of paper PMC10307832.
